Reference: US20240092758A1, “IMIDAZOLO INDAZOLE COMPOUNDS AS JAK INHIBITORS” (Theravance Biopharma R&D IP, LLC, priority 2021, published 2024)

Columns and labels:
[1] = system: IL-13 induced STAT6 phosphorylation in BEAS-2B human lung epithelial cells; experiment: Cellular JAKI potency assay (BEAS-2B); type: cell-based; settings: Homo sapiens, BEAS-2B, BEAS-2B cells, read-out: BEAS2B pIC50 (converted)
Summary of the method: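 AlphaLISA SureFire detection of Tyr641 pSTAT6 in lysates gave IC50s (4-parameter fit, expressed as pIC50). Cells: human BEAS-2B, exposed 1 h at 37 °C to compound dose series at 0.1% DMSO, then 30 min to IL-13 added at 80 ng/mL in HEPES-buffered HBSS with BSA.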

JAK1 = JAK1 (Homo sapiens (Human), UniProt P23458); experiment: Biochemical JAK kinase assay (LanthaScreen), JAK1; settings: for Ki: read-out: JAK1 pKi (converted)
Sequence of JAK1 (P23458 whole entry): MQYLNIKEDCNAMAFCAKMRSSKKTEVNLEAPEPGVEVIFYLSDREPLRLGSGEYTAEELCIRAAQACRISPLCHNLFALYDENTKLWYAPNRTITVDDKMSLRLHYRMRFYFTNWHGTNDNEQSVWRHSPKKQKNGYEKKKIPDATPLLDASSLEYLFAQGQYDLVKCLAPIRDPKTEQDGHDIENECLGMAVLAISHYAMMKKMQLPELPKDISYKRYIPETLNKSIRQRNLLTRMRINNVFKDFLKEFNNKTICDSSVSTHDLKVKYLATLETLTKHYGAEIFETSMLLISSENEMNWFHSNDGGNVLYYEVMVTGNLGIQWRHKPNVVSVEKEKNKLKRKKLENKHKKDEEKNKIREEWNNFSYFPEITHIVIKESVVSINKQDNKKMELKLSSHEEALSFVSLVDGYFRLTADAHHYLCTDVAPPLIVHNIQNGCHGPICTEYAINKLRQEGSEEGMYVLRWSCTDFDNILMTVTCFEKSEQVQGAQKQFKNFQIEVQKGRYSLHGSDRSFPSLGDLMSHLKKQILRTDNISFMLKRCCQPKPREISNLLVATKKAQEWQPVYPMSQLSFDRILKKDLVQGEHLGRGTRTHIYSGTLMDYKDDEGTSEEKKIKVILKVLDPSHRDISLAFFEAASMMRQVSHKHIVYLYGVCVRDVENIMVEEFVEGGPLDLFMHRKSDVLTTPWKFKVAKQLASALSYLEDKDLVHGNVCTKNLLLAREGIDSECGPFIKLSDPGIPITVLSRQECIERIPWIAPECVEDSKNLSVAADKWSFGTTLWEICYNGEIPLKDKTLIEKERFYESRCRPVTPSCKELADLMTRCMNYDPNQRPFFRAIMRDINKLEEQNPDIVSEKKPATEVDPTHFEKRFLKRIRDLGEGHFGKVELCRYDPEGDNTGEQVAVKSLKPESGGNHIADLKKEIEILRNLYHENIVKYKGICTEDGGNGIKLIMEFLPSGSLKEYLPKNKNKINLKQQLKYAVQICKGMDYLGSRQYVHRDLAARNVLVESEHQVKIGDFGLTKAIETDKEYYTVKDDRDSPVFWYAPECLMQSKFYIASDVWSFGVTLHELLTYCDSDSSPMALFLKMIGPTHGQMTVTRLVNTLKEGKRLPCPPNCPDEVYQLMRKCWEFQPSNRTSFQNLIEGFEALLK
Summary of the method: (§1)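 LanthaScreen format: phospho-STAT1 (pTyr701) detected with 2 nM Tb antibody after 10 mM EDTA quench. Kinase step used Km-level ATP and 200 nM STAT1 peptide, 1 h at ambient after 1 h pre-incubation. Inhibition fitted to IC50, reported as pKi.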

[2] = Pharmacokinetics in plasma and lung in mouse after oral aspiration administration; type: in vivo; settings: male CD1 mice
Experimental: Plasma and lung concentrations of test compounds were quantified and pharmacokinetic parameters were calculated in the following manner. Male CD1 mice from Charles River Laboratories were used in the pharmacokinetic studies. Test compounds were individually formulated in 20% propylene glycol in pH 4 citrate buffer at a concentration of 0.2 mg/mL. Test compounds were administered in two, 25 μL increments introduced into the trachea of each mouse by oral aspiration using a calibrated pipette once the animal was anesthetized using isoflurane. Blood samples were collected as terminal collections via cardiac puncture at 0.167, 1, 4, 8, and 24 hr post-dosing. Following […] with CO2, a direct cardiac puncture was performed while avoiding puncturing the lung and blood was immediately transferred into K2EDTA tubes and placed on wet ice. Blood samples were centrifuged (Eppendorf centrifuge, 5804R) for 4 minutes at approximately 12,000 rpm at 4° C. to collect plasma. Intact lungs were also excised from these mice using the same timepoints (0.167, 1, 4, 8, and 24 hr). Lungs were washed with sterile water to remove any blood residue and were patted dry, weighed, and homogenized in 0.1% formic acid in water at a dilution of 1:3 (lung:water, weight/volume). Plasma and lung concentrations of test compounds were determined by LC-MS/MS analysis against analytical standards constructed into a standard curve in the test matrix. The pharmacokinetic parameters of test compounds were determined by non-compartmental analysis. For concentrations below the limit of quantification, zero was used for mean calculations. Mean values were not reported if more than 50% of the samples were below the limit of quantification at a timepoint, or if more than 50% of a calculated pharmacokinetic parameter was not reportable. The area under the concentration-time curve extrapolated to infinity (AUC(0-inf)) was calculated as follows: AUC(0-inf)=AUC(0-t)+Clast/k, where AUC(0-t) is the area under the concentration-time curve from the time of dosing to the last measurable concentration calculated by the linear trapezoidal rule, Clast is the last measurable concentration, and k is the first order rate constant associated with the terminal elimination phase, estimated by linear regression of time versus log concentration. The lung-to-plasma AUC ratio was determined as the ratio of the lung AUC(0-inf) in μg*hr/g to the plasma AUC(0-inf) in μg*hr/mL.

TYK2 = TYK2 (Homo sapiens (Human), UniProt P29597); experiment: Biochemical JAK kinase assay (LanthaScreen), Tyk2; settings: read-out: Tyk2 pKi (converted)
Sequence of TYK2 (P29597 whole entry): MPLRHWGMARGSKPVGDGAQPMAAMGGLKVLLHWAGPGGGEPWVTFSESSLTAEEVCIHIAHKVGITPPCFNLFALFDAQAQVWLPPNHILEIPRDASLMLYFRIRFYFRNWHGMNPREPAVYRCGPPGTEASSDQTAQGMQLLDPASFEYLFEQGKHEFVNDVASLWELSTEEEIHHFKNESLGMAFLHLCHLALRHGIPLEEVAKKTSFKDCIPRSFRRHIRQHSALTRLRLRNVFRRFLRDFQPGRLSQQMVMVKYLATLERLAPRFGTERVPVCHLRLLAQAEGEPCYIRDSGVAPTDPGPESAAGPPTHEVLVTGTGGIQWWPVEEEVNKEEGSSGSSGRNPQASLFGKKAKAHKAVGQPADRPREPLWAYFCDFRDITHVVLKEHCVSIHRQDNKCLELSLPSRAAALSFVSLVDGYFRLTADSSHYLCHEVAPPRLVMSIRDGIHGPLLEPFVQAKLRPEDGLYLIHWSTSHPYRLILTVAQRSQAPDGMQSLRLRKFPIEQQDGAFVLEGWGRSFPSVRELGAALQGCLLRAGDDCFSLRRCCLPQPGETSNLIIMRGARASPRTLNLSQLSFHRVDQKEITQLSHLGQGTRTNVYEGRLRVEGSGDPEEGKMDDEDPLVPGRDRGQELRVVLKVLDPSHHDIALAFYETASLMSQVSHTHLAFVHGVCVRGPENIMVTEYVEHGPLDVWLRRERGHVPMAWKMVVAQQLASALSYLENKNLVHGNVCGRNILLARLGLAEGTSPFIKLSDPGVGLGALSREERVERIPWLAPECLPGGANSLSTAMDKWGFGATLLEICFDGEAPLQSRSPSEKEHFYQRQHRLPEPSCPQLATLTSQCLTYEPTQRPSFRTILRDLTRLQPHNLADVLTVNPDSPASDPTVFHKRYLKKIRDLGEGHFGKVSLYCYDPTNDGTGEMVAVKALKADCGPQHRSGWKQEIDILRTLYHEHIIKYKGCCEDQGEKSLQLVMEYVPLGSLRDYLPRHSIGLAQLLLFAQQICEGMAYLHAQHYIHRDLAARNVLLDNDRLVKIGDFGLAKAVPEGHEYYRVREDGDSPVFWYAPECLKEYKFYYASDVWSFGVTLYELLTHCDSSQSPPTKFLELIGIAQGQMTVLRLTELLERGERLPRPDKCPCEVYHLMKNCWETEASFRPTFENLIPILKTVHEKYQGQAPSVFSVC
Experimental: A panel of four LanthaScreen JAK biochemical assays (JAK1, 2, 3 and Tyk2) were carried in a common kinase reaction buffer (50 mM HEPES, pH 7.5, 0.01% Brij-35, 10 mM MgCl2, and 1 mM EGTA). Recombinant GST-tagged JAK enzymes and a GFP-tagged STAT1 peptide substrate were obtained from Life Technologies.
Serially diluted compounds were pre-incubated with each of the four JAK enzymes and the substrate in white 384-well microplates (Corning) at ambient temperature for 1 h. ATP was subsequently added to initiate the kinase reactions in 10 μL total volume, with 1% DMSO. The final enzyme concentrations for JAK1, 2, 3 and Tyk2 are 4.2 nM, 0.1 nM, 1 nM, and 0.25 nM respectively; the corresponding Km ATP concentrations used are 25 μM, 3 μM, 1.6 μM, and 10 μM; while the substrate concentration is 200 nM for all four assays. Kinase reactions were allowed to proceed for 1 hour at ambient temperature before a 10 μL preparation of EDTA (10 mM final concentration) and Tb-anti-pSTAT1 (pTyr701) antibody (Life Technologies, 2 nM final concentration) in TR-FRET dilution buffer (Life Technologies) was added. The plates were allowed to incubate at ambient temperature for 1 h before being read on the EnVision reader (Perkin Elmer). Emission ratio signals (520 nm/495 nm) were recorded and utilized to calculate the percent inhibition values based on DMSO and background controls.
For dose-response analysis, percent inhibition data were plotted vs. compound concentrations, and IC50 values were determined from a 4-parameter robust fit model with the Prism software (GraphPad Software). Results were expressed as pIC50 (negative logarithm of IC50) and subsequently converted to pKi (negative logarithm of dissociation constant, Ki) using the Cheng-Prusoff equation.
Test compounds having a lower Ki value or higher pKi value in the four JAK assays show greater inhibition of JAK activity.

JAK2 = JAK2 (Homo sapiens (Human), UniProt O60674); experiment: Biochemical JAK kinase assay (LanthaScreen), JAK2; settings: for Ki: read-out: JAK2 pKi (converted)
Sequence of JAK2 (O60674 whole entry): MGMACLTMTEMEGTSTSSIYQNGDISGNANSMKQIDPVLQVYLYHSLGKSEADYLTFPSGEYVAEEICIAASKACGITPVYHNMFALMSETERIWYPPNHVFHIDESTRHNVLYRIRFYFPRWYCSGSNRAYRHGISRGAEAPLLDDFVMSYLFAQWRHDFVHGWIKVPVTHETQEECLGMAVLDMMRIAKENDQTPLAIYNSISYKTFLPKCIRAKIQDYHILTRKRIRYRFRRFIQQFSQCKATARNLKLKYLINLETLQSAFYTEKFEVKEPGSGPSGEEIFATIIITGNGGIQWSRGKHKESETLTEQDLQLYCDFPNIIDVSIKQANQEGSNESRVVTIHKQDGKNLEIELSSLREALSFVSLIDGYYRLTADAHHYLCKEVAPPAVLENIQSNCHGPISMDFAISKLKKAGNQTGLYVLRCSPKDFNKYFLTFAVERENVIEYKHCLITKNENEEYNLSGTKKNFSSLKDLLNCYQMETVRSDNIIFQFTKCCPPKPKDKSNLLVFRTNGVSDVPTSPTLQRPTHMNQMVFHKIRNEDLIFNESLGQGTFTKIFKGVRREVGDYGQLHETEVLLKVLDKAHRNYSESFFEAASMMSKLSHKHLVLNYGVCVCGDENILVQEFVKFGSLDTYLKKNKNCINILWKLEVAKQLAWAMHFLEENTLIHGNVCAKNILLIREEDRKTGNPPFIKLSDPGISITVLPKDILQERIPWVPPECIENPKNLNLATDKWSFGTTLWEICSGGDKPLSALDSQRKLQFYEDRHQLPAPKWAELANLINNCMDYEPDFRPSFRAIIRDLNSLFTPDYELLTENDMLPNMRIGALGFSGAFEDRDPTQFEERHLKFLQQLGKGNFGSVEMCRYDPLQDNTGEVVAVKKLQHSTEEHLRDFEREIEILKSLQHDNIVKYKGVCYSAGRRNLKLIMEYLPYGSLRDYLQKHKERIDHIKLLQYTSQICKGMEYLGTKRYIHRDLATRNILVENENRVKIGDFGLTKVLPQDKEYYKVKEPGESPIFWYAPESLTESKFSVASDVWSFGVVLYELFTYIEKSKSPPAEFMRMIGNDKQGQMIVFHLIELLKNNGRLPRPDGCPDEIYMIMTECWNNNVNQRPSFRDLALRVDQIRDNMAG
Summary of the method: as §1

Row | Compound | IC50 [1] [nM] | Ki (JAK1) [nM] | Lung Tissue AUC(0-24) ([2]; 0.2 mg/mL, two 25 μL increments, lung tissue) | Lung Tissue:Plasma AUC ratio ([2]; lung AUC to plasma AUC) | AUC(0-t) ([2]; mouse, inhaled or intranasal, 0.01 mg/mouse, 0.2 mg/mL, two 25 μL increments, plasma, read-out: Plasma AUC(0-24)) [ng·h/mL] | Ki (TYK2) [nM] | JAK1 pKi (JAK1) | Ki (JAK2) [nM] | JAK2 pKi (JAK2)
1 | CCc1cc(O)ccc1-c1ccc2c(-c3nc(C4=CCN(C(C)CO)CC4)c[nH]3)n[nH]c2c1F (stereo not drawn) [Compound 13, 3-ethyl-4-(7-fluoro-3-(4-(1-(1-hydroxypropan-2-yl)-1,2,3,6-tetrahydropyridin-4-yl)-1H-imidazol-2-yl)-1H-indazol-6-yl)phenol] | 3.16 to 10 | 0.1 to 1 | B (B denotes a value between 50 and 100) | C (C denotes a ratio between 100 and 200) | 500 to 1000 | – | – | – | –
2 | CCc1cc(O)ccc1-c1ccc2c(-c3nc(C4=CCN(C(=O)[C@@H]5CCCN5)CC4)c[nH]3)n[nH]c2c1F [Compound 16, (S)-6-(2-ethyl-4-hydroxyphenyl)-7-fluoro-3-(4-(1-prolyl-1,2,3,6-tetrahydropyridin-4-yl)-1H-imidazol-2-yl)-1H-indazole] | 31.6 to 100 | 1 to 10 | – | – | – | 1 to 10 | – | – | –
3 | CCc1cc(O)c(F)cc1-c1ccc2c(-c3nc(C4=CCNC4)c[nH]3)n[nH]c2c1F [Example 18, 4-(3-(4-(2,5-dihydro-1H-pyrrol-3-yl)-1H-imidazol-2-yl)-7-fluoro-1H-indazol-6-yl)-5-ethyl-2-fluorophenol] | 3.16 to 10 | – | – | – | – | 1 to 10 | A (A represents a pKi value ≥10 (Ki≤0.1 nM)) | – | –
4 | CCc1cc(O)ccc1-c1ccc2c(-c3nc(C4=CCCN(C5CCOCC5)C4)c[nH]3)n[nH]c2c1F [Example 69] | 10 to 31.6 | 0.1 to 1 | – | – | – | 1 to 10 | – | 0.1 to 1 | –
5 | CCc1cc(O)ccc1-c1ccc2c(-c3nc(C4=CCN(C5CCCCC5)CC4)c[nH]3)n[nH]c2c1F [Example 122] | 31.6 to 100 | 0.1 to 1 | – | – | – | 1 to 10 | – | – | –
6 | CCc1cc(O)ccc1-c1ccc2c(-c3nc(C4=CCCN(C5CCCCC5)C4)c[nH]3)n[nH]c2c1F [Example 126] | 31.6 to 100 | 0.1 to 1 | – | – | – | 1 to 10 | – | – | –
7 | CCc1cc(O)ccc1-c1ccc2c(-c3nc(C4=CCN(C(=O)[C@@H](N)Cc5ccccc5)CC4)c[nH]3)n[nH]c2c1 [Example 176] | 31.6 to 100 | 0.1 to 1 | – | – | – | 1 to 10 | – | – | –
8 | CCc1cc(O)ccc1-c1ccc2c(-c3nc(C4=CCN(C(=O)[C@@H]5CCCN5)CC4)c[nH]3)n[nH]c2c1 [Example 177] | 31.6 to 100 | 0.1 to 1 | – | – | – | 1 to 10 | – | – | –
9 | CCc1cc(O)ccc1-c1ccc2c(-c3nc(C4=CCN(C(=O)[C@@H](N)Cc5ccccc5)CC4)c[nH]3)n[nH]c2c1F [Example 179] | 100 to 316 | 1 to 10 | – | – | – | 10 to 100 | – | – | –
10 | CCc1cc(O)ccc1-c1ccc2c(-c3nc(C4=CCN(S(=O)(=O)C5CNC5)C4)c[nH]3)n[nH]c2c1F [Example 180] | 31.6 to 100 | 1 to 10 | – | – | – | 10 to 100 | – | – | –
11 | CCc1cc(O)ccc1-c1ccc2c(-c3nc(C4=CCN(C(=O)[C@@H]5CCCN5)C4)c[nH]3)n[nH]c2c1F [Example 181] | 31.6 to 100 | 0.1 to 1 | – | – | – | 1 to 10 | – | – | –
12 | CCc1cc(O)ccc1-c1ccc2c(-c3nc(C4=CCN(C5CCN(C)CC5)CC4)c[nH]3)n[nH]c2c1 [Example 182] | 10 to 31.6 | – | – | – | – | 1 to 10 | A (A represents a pKi value ≥10 (Ki≤0.1 nM)) | 0.1 to 1 | –
13 | CCc1cc(O)ccc1-c1ccc2c(-c3nc(C4=CCN(CCNC)CC4)c[nH]3)n[nH]c2c1 [Example 183] | 31.6 to 100 | 0.1 to 1 | – | – | – | 1 to 10 | – | – | –
14 | CCc1cc(O)ccc1-c1ccc2c(-c3nc(C4=CCN(CCN)CC4)c[nH]3)n[nH]c2c1F [Example 187] | 31.6 to 100 | 0.1 to 1 | – | – | – | 1 to 10 | – | 0.1 to 1 | –
15 | CCc1cc(O)ccc1-c1ccc2c(-c3nc(C4=CCN(CCNC)CC4)c[nH]3)n[nH]c2c1F [Example 188] | 31.6 to 100 | 0.1 to 1 | – | – | – | 1 to 10 | – | – | –
16 | CCc1cc(O)ccc1-c1ccc2c(-c3nc(C4=CCCN(C[C@@H]5COCCN5)C4)c[nH]3)n[nH]c2c1 [Example 193] | 31.6 to 100 | 0.1 to 1 | – | – | – | 1 to 10 | – | 0.1 to 1 | –
17 | CCc1cc(O)ccc1-c1ccc2c(-c3nc(C4=CCCN(C[C@H]5COCCN5)C4)c[nH]3)n[nH]c2c1F [Example 197] | 31.6 to 100 | 0.1 to 1 | – | – | – | 1 to 10 | – | – | –
18 | CCc1cc(O)ccc1-c1ccc2c(-c3nc(C4=CCCN(CCN5CCOCC5)C4)c[nH]3)n[nH]c2c1F [Example 198] | 10 to 31.6 | 0.1 to 1 | – | – | – | 1 to 10 | – | 0.1 to 1 | –
19 | CCc1cc(O)ccc1-c1ccc2c(-c3nc(C4=CCN(CCN)C4)c[nH]3)n[nH]c2c1F [Example 203] | 31.6 to 100 | 0.1 to 1 | – | – | – | 1 to 10 | – | – | –
20 | CCc1cc(O)ccc1-c1ccc2c(-c3nc(C4=CCN(CCNC)C4)c[nH]3)n[nH]c2c1F [Example 204] | 31.6 to 100 | 0.1 to 1 | – | – | – | 1 to 10 | – | – | –
21 | CCc1cc(O)ccc1-c1ccc2c(-c3nc(C4=CCN(C[C@@H]5COCCN5C)CC4)c[nH]3)n[nH]c2c1F [Example 210] | 10 to 31.6 | 0.1 to 1 | – | – | – | 1 to 10 | – | – | A (A represents a pKi value ≥10 (Ki≤0.1 nM))
22 | CCc1cc(O)ccc1-c1ccc2c(-c3nc(C4=CCN(C5CCCNC5)CC4)c[nH]3)n[nH]c2c1F (stereo not drawn) [Example 211] | 31.6 to 100 | 0.1 to 1 | – | – | – | 1 to 10 | – | – | –
23 | CCc1cc(O)ccc1-c1ccc2c(-c3nc(C4=CCCN(C5CCCNC5)C4)c[nH]3)n[nH]c2c1F (stereo not drawn) [Example 216] | 100 to 316 | 1 to 10 | – | – | – | 1 to 10 | – | 0.1 to 1 | –
24 | CCc1cc(O)ccc1-c1ccc2c(-c3nc(C4=CCN(C[C@@H]5COCCN5C)C4)c[nH]3)n[nH]c2c1F [Example 221] | 10 to 31.6 | 0.1 to 1 | – | – | – | 0.1 to 1 | – | – | –
25 | CCc1cc(O)ccc1-c1ccc2c(-c3nc(C4=CCN(C5CCCNC5)C4)c[nH]3)n[nH]c2c1F (stereo not drawn) [Example 222] | 10 to 31.6 | 0.1 to 1 | – | – | – | 1 to 10 | – | – | –
26 | CCc1cc(O)ccc1-c1ccc2c(-c3nc(C4=CC(C)(C)NC(C)(C)C4)c[nH]3)n[nH]c2c1 [Example 226] | 10 to 31.6 | 0.1 to 1 | – | – | – | 1 to 10 | – | – | –
27 | CCc1cc(O)ccc1-c1ccc2c(-c3nc(C4=CCNCC4)c(C)[nH]3)n[nH]c2c1 [Example 291] | 3.16 to 10 | – | – | – | – | 0.1 to 1 | A (A represents a pKi value ≥10 (Ki≤0.1 nM)) | – | –
28 | CCc1cc(O)ccc1-c1ccc2c(-c3nc(C4=CCN(C[C@@H]5COCCN5C(=O)OC(C)(C)C)CC4)c[nH]3)n[nH]c2c1 [Example 383] | 31.6 to 100 | 0.1 to 1 | – | – | – | 10 to 100 | – | – | –
